Experimental data: patent publication US20240239752A1, “BICYCLIC HETEROAROMATIC INHIBITORS OF KLK5” (BioCryst Pharmaceuticals, Inc., priority 2021, published 2024)

Biological target: T1, recombinant human KLK5 (Homo sapiens, UniProt Q9Y337)
T1 construct: purchased Novoprotein or R&D Systems C415 or 1108-SE
T1 sequence (Q9Y337 23-293): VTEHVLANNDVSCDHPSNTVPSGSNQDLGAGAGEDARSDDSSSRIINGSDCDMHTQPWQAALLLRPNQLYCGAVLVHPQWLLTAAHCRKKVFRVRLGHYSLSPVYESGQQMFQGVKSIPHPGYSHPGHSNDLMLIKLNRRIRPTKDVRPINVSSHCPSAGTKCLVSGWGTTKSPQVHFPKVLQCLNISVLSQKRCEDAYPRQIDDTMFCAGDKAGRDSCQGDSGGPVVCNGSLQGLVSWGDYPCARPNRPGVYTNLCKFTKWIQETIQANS
Assay: Kallikrein (KLK) 5 enzymatic assay (Boc-VPR-AMC fluorogenic substrate)
Type: biochemical
Settings: recombinant human KLK5 0.1 μg/well, Boc-VPR-AMC 100 μM, pH 7.5, room temperature, 1% DMSO; tested a minimum of three times
In short: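 Fluorogenic rate assay at pH 7.5 (0.1 M NaH2PO4, 1% DMSO, room temperature), run at least three times per compound. Compound was premixed with 0.1 μg/well recombinant human KLK5 before adding 100 μM Boc-VPR-AMC; AMC release was read at ex 380/em 460 nm, and IC50 derived from inhibition of rate vs DMSO control.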

IC50 [µM]	SMILES
< 1	Nc1nccc2ccc(-c3ccc4c(c3)C(Oc3ccccc3CC(=O)O)CC43CCOCC3)cc12 (stereo not shown) [Compound 350h, 2-(2-((5-(1-aminoisoquinolin-7-yl)-2,2′,3,3′,5′,6′-hexahydrospiro[indene-1,4′-pyran]-3-yl)oxy)phenyl)acetic acid]
> 10	COc1ncc(N)c2cc(-c3ccc4c(c3)c(COc3ccccc3CC(=O)O)nn4C(C)C)ccc12 [Compound 73d, 2-(2-((5-(4-amino-1-methoxyisoquinolin-6-yl)-1-isopropyl-1H-indazol-3-yl)methoxy)phenyl)acetic acid]
> 10	CC(C)n1nc(COc2ccccc2CC(=O)O)c2cc(-c3ccc4ncnc(N)c4c3)ccc21 [Compound 39c, 2-(2-((5-(4-aminoquinazolin-6-yl)-1-isopropyl-1H-indazol-3-yl)methoxy)phenyl)acetic acid]
< 1	COC(=O)N1CCC2(CC1)C[C@H](Oc1ccccc1CC(=O)O)c1cc(-c3cccc4c(N)nccc34)ccc12 [Compound 396d, (S)-2-(2-((5-(1-aminoisoquinolin-5-yl)-1′-(methoxycarbonyl)-2,3-dihydrospiro[indene-1,4′-piperidin]-3-yl)oxy)phenyl)acetic acid]
1 to 10	CCOC(=O)N1CC(n2nc3ccc(-c4cccc5c(N)nccc45)cc3c2COc2ccccc2CC(=O)O)C1 [Compound 126c, 2-(2-((5-(1-aminoisoquinolin-5-yl)-2-(1-(ethoxycarbonyl)azetidin-3-yl)-2H-indazol-3-yl)methoxy)phenyl)acetic acid]
< 1	N=C(N)c1cccc(-c2ccc3c(c2)c(COc2ccccc2CC(=O)O)nn3C2CC2)c1 [Compound 59d, 2-(2-((5-(3-carbamimidoylphenyl)-1-cyclopropyl-1H-indazol-3-yl)methoxy)phenyl)acetic acid]
1 to 10	COc1ccc(CC(=O)O)c(OCc2c3cc(-c4cccc5c(N)nccc45)ccc3nn2C2CCC2)c1 [Compound 19c, 2-(2-((5-(1-aminoisoquinolin-5-yl)-2-cyclobutyl-2H-indazol-3-yl)methoxy)-4-methoxyphenyl)acetic acid]
1 to 10	CCc1cccc(OCc2nn(C3CCC3)c3ccc(-c4ccc5ccnc(N)c5c4)cc23)c1CC(=O)O [Compound 180g, 2-(2-((5-(1-aminoisoquinolin-7-yl)-1-cyclobutyl-1H-indazol-3-yl)methoxy)-6-ethylphenyl)acetic acid]
< 1	CC[C@H](C)n1nc(COc2ccccc2CC(=O)O)c2cc(-c3ccc4ccnc(N)c4c3)ccc21 [Compound 192e, (S)-2-(2-((5-(1-aminoisoquinolin-7-yl)-1-(sec-butyl)-1H-indazol-3-yl)methoxy)phenyl)acetic acid]
< 1	CCS(=O)(=O)N1CCC(n2nc(COc3ccccc3CC(=O)O)c3cc(-c4ccc5ccnc(N)c5c4)ccc32)C1 (stereo not shown) [Compound 312c, 2-(2-((5-(1-aminoisoquinolin-7-yl)-1-(1-(ethylsulfonyl)pyrrolidin-3-yl)-1H-indazol-3-yl)methoxy)phenyl)acetic acid]
< 1	Cc1ccc(CC(=O)O)c(O[C@@H]2CCc3ccc(-c4cccc5c(N)nccc45)cc32)c1 [Compound 426b, (R)-2-(2-((6-(1-aminoisoquinolin-5-yl)-2,3-dihydro-1H-inden-1-yl)oxy)-4-methylphenyl)acetic acid]
< 1	CC(C)OC(=O)N1CC[C@@H](n2nc(COc3ccccc3CC(=O)O)c3cc(-c4ccc5ccnc(N)c5c4)ccc32)C1 [Compound 362c, (R)-2-(2-((5-(1-aminoisoquinolin-7-yl)-1-(1-(isopropoxycarbonyl)pyrrolidin-3-yl)-1H-indazol-3-yl)methoxy)phenyl)acetic acid]
< 1	Nc1nccc2c(-c3cc(-c4ccoc4)c4c(c3)c(COc3ccccc3CC(=O)O)nn4C3CCCCO3)cccc12 (stereo not shown) [Compound 106g, 2-(2-((5-(1-aminoisoquinolin-5-yl)-7-(furan-3-yl)-1-(tetrahydro-2H-pyran-2-yl)-1H-indazol-3-yl)methoxy)phenyl)acetic acid]
> 10	CC(C)n1nc(COc2ccccc2CC(=O)O)c2cc(-c3cccc(-c4c[nH]nc4N)c3)ccc21 [Compound 45c, 2-(2-((5-(3-(3-amino-1H-pyrazol-4-yl)phenyl)-1-isopropyl-1H-indazol-3-yl)methoxy)phenyl)acetic acid]
< 1	Cn1nc(COc2ccccc2CC(=O)O)c2cc(-c3cccc4c(N)nccc34)ccc21 [Compound 58b, 2-(2-((5-(1-aminoisoquinolin-5-yl)-1-methyl-1H-indazol-3-yl)methoxy)phenyl)acetic acid]
1 to 10	Cc1cccc(CC(=O)O)c1OCc1nn(C2CCC2)c2ccc(-c3ccc4ccnc(N)c4c3)cc12 [Compound 159g, 2-(2-((5-(1-aminoisoquinolin-7-yl)-1-cyclobutyl-1H-indazol-3-yl)methoxy)-3-methylphenyl)acetic acid]

IC50 [µM]	SMILES
1 to 10	COc1ccc(OCc2c3cc(-c4cccc5c(N)nccc45)ccc3nn2C2CCC2)c(CC(=O)O)c1 [Compound 158b, 2-(2-((5-(1-aminoisoquinolin-5-yl)-2-cyclobutyl-2H-indazol-3-yl)methoxy)-5-methoxyphenyl)acetic acid]
> 10	COc1ccc(CC(=O)O)c(OCc2coc3c(OC)cc(-c4ccc5ccnc(N)c5c4)cc23)c1 [Compound 234c, 2-(2-((5-(1-aminoisoquinolin-7-yl)-7-methoxybenzofuran-3-yl)methoxy)-4-methoxyphenyl)acetic acid]
< 1	Nc1nccc2c(-c3ccc4c(c3)c(COc3ccccc3CC(=O)O)nn4C3CCCOC3)cccc12 (stereo not shown) [Compound 284b, 2-(2-((5-(1-aminoisoquinolin-5-yl)-1-(tetrahydro-2H-pyran-3-yl)-1H-indazol-3-yl)methoxy)phenyl)acetic acid]
< 1	CC(C)CCN1CC(Cn2nc(COc3ccccc3CC(=O)O)c3cc(-c4cccc5c(N)nccc45)ccc32)C1 [Compound 308b, 2-(2-((5-(1-aminoisoquinolin-5-yl)-1-((1-isopentylazetidin-3-yl)methyl)-1H-indazol-3-yl)methoxy)phenyl)acetic acid]
< 1	Nc1nccc2c(-c3ccc4c(c3)C(Oc3cc(F)ccc3CC(=O)O)CC43CCCC3)cccc12 (stereo not shown) [Compound 442c, 2-(2-((5′-(1-aminoisoquinolin-5-yl)-2′,3′-dihydrospiro[cyclopentane-1,1′-inden]-3′-yl)oxy)-4-fluorophenyl)acetic acid]
< 1	COC(=O)N1CCC2(CC1)C[C@@H](Oc1ccccc1CC(=O)O)c1cc(-c3cccc4c(N)nccc34)ccc12 [Compound 398d, (R)-2-(2-((5-(1-aminoisoquinolin-5-yl)-1′-(methoxycarbonyl)-2,3-dihydrospiro[indene-1,4′-piperidin]-3-yl)oxy)phenyl)acetic acid]
1 to 10	Nc1nccc2c(-c3ccc4nn(C5CCC5)c(COc5cc(OC(F)(F)F)ccc5CC(=O)O)c4c3)cccc12 [Compound 154b, 2-(2-((5-(1-aminoisoquinolin-5-yl)-2-cyclobutyl-2H-indazol-3-yl)methoxy)-4-(trifluoromethoxy)phenyl)acetic acid]
< 1	Cc1ccc(CC(=O)O)c(OCc2nn(C(C)C)c3ccc(-c4cccc(C(=N)N)c4)cc23)c1 [Compound 103c, 2-(2-((5-(3-carbamimidoylphenyl)-1-isopropyl-1H-indazol-3-yl)methoxy)-4-methylphenyl)acetic acid]
< 1	COc1ccc(CC(=O)O)c(OCc2nn(C3CCC3)c3ccc(-c4cccc5c(N)nccc45)cc23)c1 [Compound 169c, 2-(2-((5-(1-aminoisoquinolin-5-yl)-1-cyclobutyl-1H-indazol-3-yl)methoxy)-4-methoxyphenyl)acetic acid]
< 1	COc1ccc(CC(=O)O)c(OCc2nn(C(C)C)c3ccc(-c4cccc(C(=N)N)c4)cc23)c1 [Compound 5e, 2-(2-((5-(3-carbamimidoylphenyl)-1-isopropyl-1H-indazol-3-yl)methoxy)-4-methoxyphenyl)acetic acid]
< 1	Nc1nccc2c(-c3ccc4c(c3)c(COc3ccccc3CC(=O)O)nn4C3CCOC3)cccc12 (stereo not shown) [Compound 249b, 2-(2-((5-(1-aminoisoquinolin-5-yl)-1-(tetrahydrofuran-3-yl)-1H-indazol-3-yl)methoxy)phenyl)acetic acid]
1 to 10	Nc1nccc2c(-c3ccc4c(c3)N(Cc3ccccc3CC(=O)O)CC4)cccc12 [Compound 285d, 2-(2-((6-(1-aminoisoquinolin-5-yl)indolin-1-yl)methyl)phenyl)acetic acid]
< 1	Nc1nccc2c(-c3ccc4c(c3)c(COc3ccccc3CC(=O)O)nn4CC3CNC3)cccc12 [Compound 296b, 2-(2-((5-(1-aminoisoquinolin-5-yl)-1-(azetidin-3-ylmethyl)-1H-indazol-3-yl)methoxy)phenyl)acetic acid]
< 1	Cc1cccc(O[C@@H]2CCc3ccc(-c4cccc5c(N)nccc45)cc32)c1CC(=O)O [Compound 259c, (R)-2-(2-((6-(1-aminoisoquinolin-5-yl)-2,3-dihydro-1H-inden-1-yl)oxy)-6-methylphenyl)acetic acid]
< 1	Nc1nccc2ccc(-c3ccc4c(c3)c(COc3c(CC(=O)O)cccc3C(=O)O)nn4C3CCC3)cc12 [Compound 176a, 2-((5-(1-aminoisoquinolin-7-yl)-1-cyclobutyl-1H-indazol-3-yl)methoxy)-3-(carboxymethyl)benzoic acid]
